The test system of one series is CHO cells. The experiment in a line: In vitro cytotoxicity evaluation on CHO cell line (MTT method). It is filed as cell-based. Conditions: for CC50: Cricetulus griseus, 24 h incubation with product, mean ± SD of three independent experiments, read-out: Cancer cell toxicity CHO CC50. How it is done: (§1) The antiproliferative activity of the synthesized compounds was evaluated against two different cancer cell lines, CHO and HepG2, employing the MTT method and doxorubicin as a reference drug. The cytotoxic activity in vitro was expressed as CC50 (µM), the concentration of compound that inhibits proliferation of cells by 50% as compared to untreated cells.
(§2) CHO and HepG2 cell lines were maintained at 37 °C, 6% CO2, 14% O2, 80% N2, with 90% humidity in RPMI supplemented with 10% fœtal bovine serum, 1% L-glutamine (200 mM) and penicillin (100 U/mL) / streptomycin (100 µg/mL) (complete RPMI medium).
(§3) In vitro cytotoxicity evaluation on CHO and HepG2 cell lines was performed according to the method described by Mosmann with slight modifications. Briefly, 5 × 10^3 cells in 100 µL of culture medium (RPMI + […]) were inoculated into each well of 96-well plates and incubated at 37 °C in a humidified 6% CO2, 14% O2, 80% N2 atmosphere. After 24 h incubation, 100 µL of medium with various product concentrations was added and the plates were incubated from 24 h (CHO) to 72 h (HepG2). Duplicate assays were performed for each sample. At the end of the treatment and incubation, the medium was aspirated from the wells and 10 µL yellow MTT (3-(4,5-dimethyl-2-thiazolyl)-2,5-diphenyl-2H-tetrazolium bromide) solution (5 mg MTT/mL in PBS) was added to each well with 100 µL of medium without fœtal bovine serum. Cells were incubated for 2 h at 37 °C to allow MTT […] by mitochondrial dehydrogenase in the viable cells. After 2 h, the MTT solution was aspirated and DMSO (100 µL) was added to each well to dissolve the resulting blue formazan crystals. Plates were then shaken vigorously (300 rpm) for a few minutes. The absorbance was measured at 570 nm with 630 nm as reference wavelength, using a microplate spectrophotometer. DMSO was used as blank and doxorubicin as positive control.
(§4) Cell viability was calculated as percentage of control (cells incubated without compound). The 50% cytotoxic concentrations (CHO CC50 and HepG2 CC50) were determined by non-linear regression analysis processed on dose-response curves, using the Table Curve software 2D v.5.0. CC50 values represent the mean value calculated from three independent experiments.
A general note: Formazan colour is commonly taken as a measure of viable cells.

A further series has as its system HepG2 cells. Put plainly: In vitro cytotoxicity evaluation on HepG2 cell line (MTT method). Particulars: for CC50: Homo sapiens, 72 h incubation with product, mean ± SD of three independent experiments, read-out: Cancer cell toxicity HepG2 CC50; for CC50 / antiproliferative activity on HepG2 cells (in words): HepG2 cell line, MTT; for antiproliferative effect times higher toward the HepG2 than toward the CHO cell line: ratio CHO CC50 / HepG2 CC50. Type of series: cell-based, human. How it is done:
as §1, §2, §3, §4

For orientation: CC50 means the concentration that lowers cell viability or growth by half. Take `Cc1nc(CS(=O)(=O)c2ccccc2)c([N+](=O)[O-])s1` [2a, 2-methyl-5-nitro-4-phenylsulfonylmethyl-1,3-thiazole]: the 50% cytotoxic concentration (CC50) amounted to 323 µM with CHO cells and 24.6 µM with HepG2 cells.
Usually melting point stands for the temperature of the solid-liquid transition. Turning to `Cc1ccc(S(=O)(=O)Cc2nc(C)sc2[N+](=O)[O-])cc1` [2b, 2-Methyl-5-nitro-4-(tosylmethyl)-1,3-thiazole], the melting point was 179 °C. In addition, the CC50 with CHO cells stood at 237 µM. For the same molecule, in the series on HepG2 cells, the 50% cytotoxic concentration (CC50) was 7.7 µM and the “antiproliferative effect times higher toward the HepG2 than toward the CHO cell line” value is reported as 31 times.
`Cc1nc(CS(=O)(=O)c2ccc(Cl)cc2)c([N+](=O)[O-])s1` [2c, 4-[(4-Chlorophenylsulfonyl)methyl]-2-methyl-5-nitro-1,3-thiazole] gave a melting point of 180 °C. For the same molecule, in the series with CHO cells, the CC50 is above 62.5 µM. In addition, the 50% cytotoxic concentration (CC50) with HepG2 cells was 13.4 µM.
Take `Cc1nc(CS(=O)(=O)c2ccc(Br)cc2)c([N+](=O)[O-])s1` [2d, 4-[(4-Bromophenylsulfonyl)methyl]-2-methyl-5-nitro-1,3-thiazole]: the cytotoxic concentration (CC50) in the series on CHO cells is above 500 µM. In the series with HepG2 cells, the cytotoxic concentration (CC50) turned out to be 11.7 µM and the “antiproliferative effect times higher toward the HepG2 than toward the CHO cell line” value was determined as 43 times.
As to `Cc1nc(CS(=O)(=O)c2ccc(F)cc2)c([N+](=O)[O-])s1` [2e, 4-[(4-Fluorophenylsulfonyl)methyl]-2-methyl-5-nitro-1,3-thiazole], the results for the CC50 in the series on CHO cells and in the series on HepG2 cells were 229 µM and 19.3 µM, respectively.
`Cc1nc(CS(=O)(=O)c2cccc(F)c2)c([N+](=O)[O-])s1` [2f, 4-[(3-Fluorophenylsulfonyl)methyl]-2-methyl-5-nitro-1,3-thiazole]: the melting point is 154 °C. In addition, the half-maximal cytotoxic concentration (CC50) with CHO cells is 321 µM. For the same molecule, in the series with HepG2 cells, the half-maximal cytotoxic concentration (CC50) is 23.6 µM.
The corresponding values for `Cc1nc(CS(=O)(=O)c2cccc(C(F)(F)F)c2)c([N+](=O)[O-])s1` [2g, 2-Methyl-5-nitro-4-{[3-(trifluoromethyl)phenylsulfonyl]methyl}-1,3-thiazole] are 121 °C, 139 µM and 25.6 µM.
As for `COc1ccc(S(=O)(=O)Cc2nc(C)sc2[N+](=O)[O-])cc1` [2h, 4-[(4-Methoxyphenylsulfonyl)methyl]-2-methyl-5-nitro-1,3-thiazole], the results for the 50% cytotoxic concentration (CC50) in the series with CHO cells and in the series on HepG2 cells were 137 µM and 20.6 µM, respectively.
Turning to `CCc1ccc(S(=O)(=O)Cc2nc(C)sc2[N+](=O)[O-])cc1` [2i, 4-[(4-Ethylphenylsulfonyl)methyl]-2-methyl-5-nitro-1,3-thiazole], in the series on CHO cells, the “antiproliferative activity on CHO cells (in words)” value was “no activity was observed” and the cytotoxic concentration (CC50) is above 500 µM. Further, in the series on HepG2 cells, the “antiproliferative activity on HepG2 cells (in words)” value was “no activity was observed” and the CC50 worked out at 239 µM.
Molecule `Cc1nc(CS(C)(=O)=O)c([N+](=O)[O-])s1` [2j, 2-Methyl-4-(methylsulfonylmethyl)-5-nitro-1,3-thiazole] yielded a melting point of 127 °C. Also, in the series on CHO cells, the “antiproliferative activity on CHO cells (in words)” value is “no activity was observed” and the CC50 is above 250 µM. Besides, in the series with HepG2 cells, the “antiproliferative activity on HepG2 cells (in words)” value is “no activity was observed” and the cytotoxic concentration (CC50) is above 250 µM.
`Cc1nc(CS(=O)(=O)c2ccc(Br)s2)c([N+](=O)[O-])s1` [2k, 4-[(5-Bromothiophen-2-ylsulfonyl)methyl]-2-methyl-5-nitro-1,3-thiazole]: the cytotoxic concentration (CC50) was 47.3 µM in the series on CHO cells and 13.8 µM with HepG2 cells.
`Cc1nc(CS(=O)(=O)c2ccc3ccccc3c2)c([N+](=O)[O-])s1` [2l, 2-Methyl-4-[(naphtalen-2-ylsulfonyl)methyl]-5-nitro-1,3-thiazole] showed a melting point of 163 °C. Also, the half-maximal cytotoxic concentration (CC50) with CHO cells was found to be 106 µM. In the series on HepG2 cells, the CC50 amounted to 8.5 µM.
Molecule `Cc1nc(C(Cl)(Cl)S(=O)(=O)c2ccccc2)c([N+](=O)[O-])s1` [3a, 4-[Dichloro(phenylsulfonyl)methyl]-2-methyl-5-nitro-1,3-thiazole] registered a melting point of 169 °C. For the same molecule, the cytotoxic concentration (CC50) in the series with CHO cells came to 2.5 µM. For the same molecule, the CC50 with HepG2 cells was 1.2 µM.
`Cc1ccc(S(=O)(=O)C(Cl)(Cl)c2nc(C)sc2[N+](=O)[O-])cc1` [3b, 4-[Dichloro(tosyl)methyl]-2-methyl-5-nitro-1,3-thiazole]: the cytotoxic concentration (CC50) came out at 1.2 µM in the series on CHO cells and 1 µM in the series with HepG2 cells.
In the case of `Cc1nc(C(Cl)(Cl)S(=O)(=O)c2ccc(Cl)cc2)c([N+](=O)[O-])s1` [3c, 4-[Dichloro(4-chlorophenylsulfonyl)methyl]-2-methyl-5-nitro-1,3-thiazole], the values for the CC50 in the series with CHO cells and in the series with HepG2 cells were 1.4 µM and 1.1 µM, respectively.
In the case of `Cc1nc(C(Cl)(Cl)S(=O)(=O)c2ccc(Br)cc2)c([N+](=O)[O-])s1` [3d, 4-[(4-Bromophenylsulfonyl)dichloromethyl]-2-methyl-5-nitro-1,3-thiazole], the melting point was 165 °C. The half-maximal cytotoxic concentration (CC50) with CHO cells amounted to 1.3 µM. Besides, the half-maximal cytotoxic concentration (CC50) in the series with HepG2 cells was found to be 1.2 µM.
Taken in the same sequence, the figures for `Cc1nc(C(Cl)(Cl)S(=O)(=O)c2ccc(F)cc2)c([N+](=O)[O-])s1` [3e, 4-[Dichloro(4-fluorophenylsulfonyl)methyl]-2-methyl-5-nitro-1,3-thiazole] were 145 °C, 1.3 µM and 1.2 µM.
For the molecule `COc1cccc2c1C(=O)c1c(O)c3c(c(O)c1C2=O)C[C@@](O)(C(=O)CO)C[C@@H]3O[C@H]1C[C@H](N)[C@H](O)[C@H](C)O1` [Doxorubicin, reference compound], the figures for the CC50 with CHO cells and in the series on HepG2 cells were 0.6 µM and 0.2 µM, respectively.

These data come from PMC6270398, “Synthesis and Promising in Vitro Antiproliferative Activity of Sulfones of a 5-Nitrothiazole Series” (Molecules, 2012).
